Source: US20120003270A1, “6-SUBSTITUTED ISOFLAVONOID COMPOUNDS AND USES THEREOF” (priority 2008, published 2012)

Tests used:
NFκB = NFκB promoter activity in transfected THP-1 cells (beta-lactamase reporter); assay type: cell-based, human; conditions: THP-1 cells, TNFα-stimulated
Protocol: The assay utilizes a genetically modified THP-1 cell line and GeneBLAzer® beta-lactamase technology (Invitrogen Corp). The human THP-1 monocyte/macrophages contain a stably-transfected beta-lactamase reporter gene under control of the NFkB response element. They respond to stimulation with TNFα, which leads to activation of the NFkB signaling pathway. Co-incubation of cells with TNFα and test material allows quantitative determination of the ability of test material to inhibit TNFα-stimulated beta-lactamase production. An inflammatory index was calculated as the ratio of beta-lactamase product to beta-lactamase substrate.
In brief, genetically modified THP-1 cells were seeded into wells of a 96-well plate (50×10^3 cells/well) in the presence of RPMI 1640 medium (70 μl). TNFα was added to each well (10 μl) to give a final concentration of 7.5 ng/ml. Dialyzed bovine serum was added (10 μl). Test compounds were dissolved in DMSO (10 μL) (5 wells). Each plate contained a no-cell control (4 wells), a no-serum control (4 wells) and two serum controls. Plates were incubated for 5 h at 37° C. to allow for NFkB-stimulated beta-lactamase production. LiveBLAzer™ FRET B/G Substrate (CCF4-AM) substrate was then added to the assay. CCF4-AM is a Förster resonance energy transfer (FRET) based substrate for beta-lactamase developed by Invitrogen Corp. Once CCFA-AM enters a cell, it is converted to negatively charged CCF4 by endogenous esterases. Excitation of this substrate at 409 nm leads to efficient FRET between the coumarin and fluorescein moieties, resulting in a green fluorescence detectable at 530 nm. The presence of beta-lactamase leads to cleavage of CCF4 and results in a loss of FRET, resulting in a robust blue fluorescent signal detectable at 460 nm. Thus, activity of beta-lactamase (a marker of NFkB-promoter activity) is measured as a product to substrate ratio (blue/green fluorescence ratio: 460 nm/530 nm).

THP-1 cells = test: Cytotoxicity in the THP-1 NFκB assay; assay type: cell-based, human; conditions: at active concentrations
iNOS = test: NO synthesis in LPS-stimulated RAW 264.7 (Griess); assay type: cell-based, mouse; conditions: LPS 50 ng/ml, 16 hrs
Protocol: The mouse macrophage cell line RAW 264.7 was cultured in DMEM supplemented with foetal calf serum (FCS), 2 mM glutamine and 50 U/ml penicillin/streptomycin. Cells were treated with either the compounds of the formula (I) (in 0.025% DMSO) or vehicle alone, and added one hour before 50 ng/ml LPS, which induces iNOS and the production of NO. After incubation for 16 hrs, culture media was collected. Nitrite concentration is a quantitative indicator of NO production and was determined by the Griess Reaction. Briefly, 100 μL of Griess reagent was added to 50 μL of each supernatant in duplicate. The absorbance at 550 nm was measured (Molecular Devices, SpectraMax 250 microplate spectrophotometer, CA, USA), and nitrite concentrations were determined against a standard curve of sodium nitrite.

RAW 264.7 = test: Toxicity in RAW 264.7; assay type: cell-based, mouse
[1] = Free radical scavenging (DPPH); assay type: biochemical; conditions: DPPH 0.1 mM, 20 minutes, 517 nm; read-out: Free radical scavenging ability EC50
Protocol: The antioxidant (free radical trapping) activity of test compounds was assessed using the stable free radical compound 2,2-diphenyl-1-picrylhydrazyl (DPPH). A stock solution of DPPH was prepared at a concentration of 0.1 mM in ethanol and mixed for 10 minutes prior to use. Compound (1) was reacted with DPPH for 20 minutes, after which time the absorbance at 517 nm was determined. The change in absorbance at 517 nm was compared to a reagent blank (DPPH with ethanol alone). The IC50 value was estimated as the concentration of the test compound that caused a 0.6 change in absorbance (with 1.2 absorbance units representing total scavenging of the DPPH radical).

PGE2 = PGE2 synthesis in RAW 264.7 (ELISA); assay type: cell-based, mouse; conditions: LPS 50 ng/ml, 16 hrs
Protocol: (§1) The mouse macrophage cell line RAW 264.7 was cultured in DMEM supplemented with foetal calf serum (FCS), 2 mM glutamine and 50 U/ml penicillin/streptomycin. Cells were treated with either test compounds (in 0.025% DMSO) or vehicle alone, and added one hour before 50 ng/ml LPS. After incubation for 16 hrs, culture media was collected for PGE2 or TXB2 measurement by ELISA (Cayman Chemical), and TNFα measurement using an ELISA (Becton Dickinson).

TXA2 = TXA2 synthesis in RAW 264.7 (ELISA); assay type: cell-based, mouse; conditions: LPS 50 ng/ml, 16 hrs
Protocol: as §1

TNFα = TNFα synthesis in RAW 264.7 (ELISA); assay type: cell-based, mouse; conditions: LPS 50 ng/ml, 16 hrs
Protocol: as §1

[2] = test system: neonatal fibroblast foreskin (NFF); test: Toxicity in normal cells (MTT), NFF; assay type: cell-based; conditions: Homo sapiens, 120 h, 5 days, top concentration 150 μM, read-out: Normal cell viability IC50
Protocol: (§2) Human neonatal fibroblast foreskin (NFF—a gift from Dr. Peter Parsons, Queensland Institute of Medical Research) or rabbit kidney (RK-13—a gift from Prof. Miller Whalley, Macquarie University) cells were seeded into 96 well plates and cultured in RPMI supplemented with 10% FCS (CSL, Australia), penicillin (100 U/ml), streptomycin ([…]), L-glutamine (2 mM) and sodium bicarbonate (1.2 g/L) at 37° C. and 5% CO2 for 24 hours until cells had attached and entered log phase of growth. Test compounds were added in serial two-fold dilutions from 150 μM in triplicate and incubated for a further 5 days. MTT was then added to each well, incubated for 3 hours at 37° C., after which the medium was tipped off. Following the addition of DMSO, the absorbance for each well was read on a plate reader. The assays were repeated at least twice.

rabbit kidney (RK-13) = test: Toxicity in normal cells (MTT), RK-13; assay type: cell-based; conditions: Oryctolagus cuniculus, RK-13, 120 h, 5 days, top concentration 150 μM, read-out: Normal cell viability IC50
Protocol: as §2

With `COC(=O)CNCc1cc2c(cc1O)OCC(c1ccc(O)cc1)=C2` [Compound (2)] the “Effect on promoter activity of NFκB (in words)” value (NFκB) was “active at the highest concentration only”, the Cytotoxicity (THP-1 cells) was “absence of cytotoxicity” and the “NO” value (iNOS; 1 μM) was 16.41 ± 0.0 µM. The “NO” value (iNOS; 10 μM) was 10.22 ± 0.15 µM, the “Effect on the viability of RAW 264.7 cells” value (RAW 264.7) was “little effect on the viability” and the EC50 [1] was > 100 µM. The “PGE2” value (PGE2; 1 μM) was 3180.37 ± 127.29 pg/mL, the “PGE2” value (PGE2; 10 μM) was 2070.69 ± 168.81 pg/mL and the “TXB2” value (TXA2; 1 μM) was 16.71 ± 3.43 pg/mL. The “TXB2” value (TXA2; 10 μM) was 17.58 ± 7.99 pg/mL, the “TNFα” value (TNFα; 1 μM) was 35085.88 ± 2273.16 pg/mL and the “TNFα” value (TNFα; 10 μM) was 46065.55 ± 1234.32 pg/mL. The IC50 [2] was 145 ± 8.1 µM and the IC50 (rabbit kidney (RK-13)) was > 150 µM.
